According to patent US20110268722A1, “COMBINATION THERAPIES WITH MITOCHONDRIAL-TARGETED ANTI-TUMOR AGENTS” (priority 2010, published 2011):
Where a SMILES comes first, the peptide text is derived from it. The star is where a group is joined. Cbz = O=C(OCc1ccccc1)*; CH2F = FC*

How the values were obtained:
U87 cells [1] = assay: MTT viability with inhibitors of phagosome formation plus G-TPP; format: cell-based, human; conditions: inhibitor 1 hour then G-TPP, MTT after 16 hours
Procedure: FIG. 11A is a graph of the percent viability of U87 cells following incubation with inhibitors of phagosome formation, bafilomycin A (BF) or 3-methyladenine (3-MA), for 1 hour and treatment with G-TPP. MTT analysis was performed after 16 hours with MTT. The mean data±standard deviation are shown.
(§1) For autophagy, glioblastoma cells were transfected with an LC3-GFP cDNA by FuGENE HD (Roche), treated with vehicle, nontargeted 17-AAG, or G-TPP, and analyzed by fluorescence microscopy. […] An average of 200 cells was counted in 4-6 independent fields per condition. In some experiments, G-TPP-treated cells were incubated with pharmacologic inhibitors of autophagy, BF, or 3-MA, and analyzed after 16 hours for modulation of cell viability by MTT.

LN229 cells [2] = assay: Electron microscopy of treated cells; format: cell-based, human; conditions: 5-10 μM, 16 hours
Procedure: Subconfluent monolayers of LN229 cells were incubated with PBS, pH 7.2, or G-TPP or nontargeted 17-AAG (5-10 μM) for 16 hours at 37° C. Cells were washed briefly in 0.1 M PBS, pH 7.4, fixed in buffered 2.5% glutaraldehyde (GA) with or without 4% formaldehyde (FA) or for 30 minutes at 22° C., post-fixed in 1% osmium tetroxide, and processed by standard methods for epoxy embedding. In some experiments, cells were fixed in buffered 3% FA with 0.1% GA for 25 minutes at 22° C., washed, quenched with NH4Cl, and dehydrated for embedding in LR White resin. Ultrathin sections on nickel grids were treated for heat-induced antigen retrieval and blocked with buffered 1% BSA, as described in published protocols (Yamashita et al., Methods Mol. Biol. 657:237-248, 2010). Samples were incubated with an antibody to COX IV, followed by a colloidal gold-conjugated (12 nm) secondary antibody of appropriate specificity (Jackson ImmunoResearch). Grids were briefly post-fixed with 2% GA, washed, air dried, and then exposed to osmium tetroxide vapors for 20 minutes. Ultrathin sections were stained with uranyl acetate and lead citrate before examination in a Philips CM10 transmission electron microscope.

[3] = system: NF-κB promoter in U251 cells; assay: NF-κB luciferase promoter activity; format: cell-based, human; conditions: U251, luciferase normalized to β-galactosidase
Procedure: FIG. 12A is a graph showing the relative light units (RLU) of U251 cells from luciferase produced from a NF-κB promoter following no treatment or treatment with G-TPP or TRAIL. The luciferase data are normalized to β-galactosidase. TRAIL (800 ng/mL) was used as a control. The mean data±standard deviation are shown.
FIG. 12B is a graph showing the RLU of U251 cells from luciferase produced from a NF-κB promoter following no treatment or treatment with G-TPP in the presence or absence of TNF-α. The luciferase data are normalized to β-galactosidase. The mean data±standard deviation are shown.
(§2) FIG. 14B is a graph showing the RLU of U251 cells from luciferase produced from a NF-κB or cFLIP promoter following treatment with non-targeted 17-AAG. Cells were analyzed after 9 hours for luciferase activity. The mean data±SEM of replicates of a representative experiment are shown.
(§3) Tumor cell types were transfected with NF-κB (Mehrota et al., Cancer Cell 17:53-64, 2010), p53, or FLIP luciferase promoter construct (pGL3-FLIP1500; Addgene #16016) using FuGENE HD. After 24 hours at 37° C., cells were stimulated with G-TPP or 17-AAG (0-10 μM) for 6 hours, harvested, and analyzed for β-galactosidase-normalized luciferase activity in a luminometer, as described (Mehrota et al., Cancer Cell 17:53-64, 2010). In some experiments, β-galactosidase-normalized NF-κB promoter activity was examined after cell stimulation with TNF-α, as described (Mehrota et al., Cancer Cell 17:53-64, 2010).

[4] = system: FLIP promoter in U251 cells; assay: FLIP luciferase promoter activity; format: cell-based, human
Procedure: FIG. 13A is a graph showing the RLU of U251 cells from luciferase produced from a FLIP promoter following no treatment or treatment with two different concentrations of G-TPP. The luciferase data are normalized to β-galactosidase. The mean data±standard deviation are shown.
as §2, §3

U251 cells [5] = assay: LC3-GFP fluorescence microscopy (autophagy); format: cell-based, human; conditions: 16 hours
Procedure: FIG. 10B is a fluorescence photomicrograph and a graph of the percentage of fluorescent U251 cells following transfection of U251 cells with LC3-GFP and treatment for 16 hours with vehicle (left photomicrograph) or G-TPP (right photomicrograph).
as §1

[6] = system: U87-luc glioblastoma cells; assay: Orthotopic glioblastoma tumor model, bioluminescence imaging; format: in vivo; conditions: CB17 SCID/beige mice; TRAIL 2 μg intracranially, TPP intraperitoneally
Procedure: Since Gamitrinib-TPP dramatically sensitizes cancer cells in vitro it was of highest interest to assess efficacy in vivo. To this end, efficacy of TRAIL, TPP, or the combination of both was determined in an orthotopic glioblastoma tumor model. Twenty nude mice were intracranially injected with U87-luc glioblastoma cells. U87 glioblastoma cells stably transfected with a luciferase expression plasmid (U87-Luc) were suspended in sterile PBS, pH 7.2, and stereotactically implanted (1×10^5) in the right cerebral striatum of immunocompromised CB17 SCID/beige female mice (Charles River Laboratories). Treatment group 1 received only vehicle solutions. Group 2 received TRAIL intracranially (2 μg) and carrier solution intraperitoneally. Group 3 received PBS intracranially and TPP intraperitoneally in a carrier solution consisting of 20% Cremophor in PBS. Group 4 received both TRAIL and TPP. Tumor growth was assessed after each intracranial injection by application of 58 mg/kg D-luciferin and subsequent bioluminescence imaging using a Xenogen In Vivo Imaging System. […]
Five days after injection of U87-luc glioblastoma cells, the mice were scanned, quantified and according to signal strength randomized into 4 treatment groups (Group 1: Vehicle, Group 2: TRAIL, Group 3: TPP, Group 4: TRAIL+TPP) (FIGS. 5A, 6A).

U87 cells [7] = assay: LC3 immunoblot (autophagy); format: cell-based, human; conditions: over time
Procedure: FIG. 10A is an immunoblot of lysates from U87 cells following treatment with G-TPP for the indicated periods of time. The position of the unmodified (I) and lipidated form (II) form of LC3 are indicated.
(§4) The various cell types were seeded in triplicate onto 96-well plates at 2×10^3 cells/well, treated with vehicle, G-TPP, or nontargeted 17-AAG (0-20 μM) for up to 24 hours, and quantified for metabolic activity by a 3(4,5-dimethyl-thyazoyl-2-yl)2,5 diphenyltetrazolium bromide (MTT) colorimetric assay with absorbance at 405 nm, as described in Plescia et al. (Cancer Cell 7:457-468, 2005). Changes in protein expression under the various combination regimens were determined by immunoblotting.

FLIP in LN229 cells = assay: FLIP protein immunoblot; format: cell-based, human
Procedure: FIG. 13B is two immunoblots lysate from LN229 cells following treatment with G-TPP. The top immunoblot is a dose response experiment. The bottom immunoblot is a time-course experiment. FLIP (L) is the FLIP long form. FLIP(S) is the FLIP short form.
as §4

U251 cells [8] = assay: Annexin V / propidium iodide flow cytometry; format: cell-based, human; conditions: 5 μM TPP-GA, 25 ng/ml TRAIL, alone or combined
U251 cells [9] = assay: Western blotting of caspase, BID and PARP cleavage; format: cell-based, human; conditions: 5 μM TPP-GA, 20 ng/ml TRAIL, alone or combined, 16 hours
Procedure: (§5) Western blotting was employed to elucidate the proteolytic mechanism in TRAIL and TRAIL+Gamitrinib-induced apoptosis. Since Gamitrinibs augment TRAIL-induced apoptosis, the activation/cleavage of caspases-3, -7, -8, -9, BH3 interacting domain death agonist (BID), and Poly-ADP-ribose polymerase (PARP) was examined. […] The time course of activation/cleavage of caspases-3, -7, -8, -9, BID, and PARP over 24 hours was also examined following treatment of LN229 (FIG. 3C) or U251 (FIG. 3D) cells with 5 μM TPP-GA and 200 or 20 ng/ml TRAIL, respectively.

LN229 cells [10] = assay: Western blotting of caspase, BID and PARP cleavage; format: cell-based, human; conditions: 5 μM TPP-GA, 200 ng/ml TRAIL, alone or combined, 16 hours
Procedure: as §5

[11] = system: p53 promoter in MCF-7 cells; assay: p53 luciferase promoter activity; format: cell-based, human; conditions: MCF-7, after 5 hours
Procedure: FIG. 14A is a graph showing the RLU of MCF-7 cells from luciferase produced from a p53 promoter following no treatment or treatment with G-TPP, Eto 10, Eto 10 and G-TPP, Eto 20, and Eto 20 and G-TPP. Cells were analyzed after 5 hours for β-galactosidase-normalized p53 luciferase promoter activity.
as §3

[12] = system: RelB, Bcl-3 mRNA in LN229 cells; assay: RelB and Bcl-3 mRNA expression; format: cell-based, human
Text: FIG. 13C is a Northern blot showing the PCR-amplified expression of RelB, Bcl-3, and GAPDH mRNA in LN229 cells following treatment with G-TPP.

cancer cells = assay: Pan-caspase inhibitor effect on TRAIL+Gamitrinib apoptosis and caspase cleavage; format: cell-based
Procedure: as §5

Cn1cnc(N)c2ncnc1-2 [3-methyladenine]
glioblastoma cell death induced by suboptimal concentrations of G-TPP (MTT) (U87 cells [1]): enhanced glioblastoma cell death

C=CCNC1=C2C[C@@H](C)C[C@H](OC)[C@H](O)[C@@H](C)/C=C(\C)[C@H](OC(N)=O)[C@@H](OC)/C=C\C=C(/C)C(=O)NC(=CC1=O)C2=O [Gamitrinib 17-AAG, 17-allylamino demethoxygeldanamycin, reference compound]
cell ultrastructure (electron microscopy) (LN229 cells [2]): unremarkable
NF-κB-mediated gene expression, constitutive [3]: no effect
FLIP promoter activity [4]: no effect

CO[C@H]1/C=C\C=C(/C)C(=O)NC2=CC(=O)C(NCCCCCC[P+](c3ccccc3)(c3ccccc3)c3ccccc3)=C(C[C@@H](C)C[C@H](OC)[C@H](O)[C@@H](C)/C=C(\C)[C@@H]1OC(N)=O)C2=O [Gamitrinib-TPP, triphenylphosphonium geldanamycin]
LC3-GFP fluorescence pattern (U251 cells [5]): exhibited a punctate fluorescence pattern
cell ultrastructure (electron microscopy) (LN229 cells [2]): became completely filled with cytoplasmic vacuoles
tumor size (bioluminescence) [6]: did not show any significant reduction in tumor size
LC3 lipidated form (immunoblot) (U87 cells [7]): accumulated a lapidated form of the ubiquitin-like protein, light chain 3 (LC3)
NF-κB-mediated gene expression after stimulation with TNF-α [3]: complete ablation
NF-κB-mediated gene expression, constitutive [3]: complete ablation
FLIP protein expression (FLIP in LN229 cells): rapid downregulation
Annexin V positive and PI-negative tumor cells (apoptosis) (U251 cells [8]): no significant effects
FLIP promoter activity [4]: rapid downregulation
cleavage of caspase-3 or -7 (U251 cells [9]): did not or only weakly induce cleavage of caspase-3 or -7
cleavage of caspase-3 or -7 (LN229 cells [10]): did not or only weakly induce cleavage of caspase-3 or -7
etoposide-mediated induction of p53 luciferase promoter activity [11]: unaffected
RelB and bcl-3 mRNA [12]: rapid downregulation

CO/C1=C\C(C)=C\[C@@H](C)[C@@H](O)[C@@H](C)C/C(C)=C/C=C/[C@H](OC)[C@@H]([C@@H](C)[C@@H](O)[C@H](C)[C@@]2(O)C[C@@H](O)[C@H](C)[C@@H](C(C)C)O2)OC1=O [bafilomycin A]
glioblastoma cell death induced by suboptimal concentrations of G-TPP (MTT) (U87 cells [1]): enhanced glioblastoma cell death

COC(=O)CC(NC(=O)C(C)NC(=O)C(NC(=O)OCc1ccccc1)C(C)C)C(=O)CF (stereo not drawn) [zVAD-fmk, benzyloxycarbonyl-Val-Ala-Asp(OMe)-fluoromethyl-ketone] (Cbz-Val-Ala-Asp(OMe)-CH2F; configuration not given here)
effect on cleavage of caspases induced by the combination of TRAIL and TPP-GA (cancer cells; Western blotting): abolished cleavage of caspases
effect on TRAIL+Gamitrinib mediated apoptosis (cancer cells; pan-caspase inhibitor added to the combination): significantly attenuated

TRAIL: Recombinant TRAIL obtained from Peprotech; death receptor agonist
tumor size (bioluminescence) [6]: did not show any significant reduction in tumor size
Annexin V positive and PI-negative tumor cells (apoptosis) (U251 cells [8]): no significant effects
cleavage of caspase-3 or -7 (U251 cells [9]): did not or only weakly induce cleavage of caspase-3 or -7
cleavage of caspase-3 or -7 (LN229 cells [10]): did not or only weakly induce cleavage of caspase-3 or -7
